Reference: US20160152560A1, “Compounds for the treatment of hypertension and hypertensive end stage renal disease” (THE REGENTS OF THE UNIVERSITY OF CALIFORNIA, priority 2013, published 2016)
Where “and” joins values, the source holds several entries; their conditions need not be identical. Equal entries are not always repeated. Where two headings read alike, the source gives them in different places. Ends that are not written are not given here.

Columns and labels:
[1] = test system: T1, nicotinic cholinergic receptor; experiment: Nicotine-stimulated [3H]-norepinephrine (catecholamine) secretion from PC12 cells; type: cell-based, rat; details: for IC50 / Hill slope (cooperativity of inhibition of secretion): nicotine 30 μM, PC12 cells; for Hill slope (cooperativity of inhibition of secretion): Hill plot; for Norepinephrine secretion at ascending nicotine doses (noncompetitive inhibition): nicotine 10 to 1000 μM, PC12 cells (FIG. 3C); for Inhibition of catecholamine release triggered by nicotine: nicotine stimulation, PC12 cells (FIG. 3B)
T1 construct: nicotine 30 μM, PC12 cells, 30 min; other: Hill plot, nicotine 30 μM, PC12 cells; other: screening at 0.5 μM and 5 μM doses; nicotine 30 μM, PC12 cells; other:
Protocol: (§1) Rat PC12 pheochromocytoma cells were grown at 37° C. with 6% CO2, in 12-well plates, in Dulbecco's modified Eagle's medium (high glucose) supplemented with fetal bovine serum, horse serum, and penicillin/streptomycin. Secretion assays were performed as described previously (N. Biswas, et al., Endocrinology, 149 (2008), 749-757). Cells were labeled for 3 h with 1 μCi/mL of [^3H]-norepinephrine (NET678, Perkin-Elmer, Waltham, Mass.), then washed three times with basal medium and one time with secretion buffer. Subsequently, the cells were incubated for 30 min with or without the agonist nicotine (30 μM), in the presence or absence of test compounds (0.5 μM or 5 μM). For IC50 determinations, secretion assays were performed in the presence of increasing concentrations of test compounds. The extracellular secretion medium and the cell lysates were collected for [^3H]-norepinephrine measurement by liquid scintillation counting. Results were expressed as percent secretion:
(§2) % secretion=[amount released/(amount released+amount in lysate)]×100.
(§3) Net secretion was calculated as agonist-stimulated release minus basal release. To establish the specificity of secretory inhibition by test compounds, in some experiments catecholamine release was triggered with other classes of secretagogues that bypass the nicotinic cholinergic pathway: membrane depolarization (55 mM KCl); P2x purinergic receptor stimulation (100 μM ATP); K^+ (repolarizing) channel blockade (2 mM BaCl2 in the absence of extracellular Ca^2+); or a Ca^2+ ionophore (1 μM ionomycin).
Actions of test compounds were compared with the classical noncompetitive nicotinic antagonist chlorisondamine, wherein labeled cells were incubated with different doses of nicotine in the presence or absence of peptide antagonists or chlorisondamine (5 μM).

[2] = test system: nicotinic receptors; experiment: Nicotine-induced 45Ca2+ uptake by PC12 cells; type: cell-based, rat; details: nicotine 30 μM, read-out: IC50 for inhibition of nicotine-induced 45Ca2+ uptake
Protocol: Nicotinic cholinergic secretory responses in the chromaffin cells are triggered by an early influx of calcium. To test the ability of the compounds to interfere at this early stage of signal transduction, PC12 cells were stimulated with nicotine (30 μM) in the presence or absence of test compounds and agonist-mediated uptake of ^45Ca^2+ was measured. ^45Ca^2+ uptake was performed as described previously with minor modifications S. K. Mahata et al., J. Clin. Invest., 100 (1997), 1623-1633). Briefly, PC12 cells were grown on poly-L-lysine coated 6-well culture dishes, and were washed with 1 mL release buffer (150 mmol/L NaCl, 5 mmol/L KCl, 2 mmol/L CaCl2, 10 mmol/L Hepes buffer, pH 7.4) every 15 minutes for 1 hour at 37° C. Cells were then pre-incubated for 1 min in release buffer in the presence or absence of test compounds. Cells were incubated for 2 min with 1 mL of Ca^2+-free release buffer containing 2 μCi of ^45Ca^2+ (catalog number NEZ01300, Perkin-Elmer), 30 μM nicotine in the presence or absence of test compounds. Thereafter, Ca^2+ uptake was terminated by the addition of 2 mL of ice-cold Ca^2+-free secretion medium containing 2 mmol/L EGTA and 1 mmol/L LaCl3, and further washed six times with 2 mL of the same buffer. Cell lysis buffer (secretion medium containing 0.1% Triton X-100, 1 mL) was then added, and the lysate was collected for liquid scintillation counting.

[3] = test system: PC12 cells; experiment: Basal [3H]-norepinephrine secretion from PC12 cells; type: cell-based, rat; details: no agonist
Protocol: as §1, §2
The compounds were also tested to determine their effect on basal secretion.

[4] = test system: PC12 cells; experiment: Catecholamine release triggered by secretagogues that bypass the nicotinic cholinergic pathway (KCl, ATP, BaCl2, ionomycin); type: cell-based, rat; details: 55 mM KCl, 100 μM ATP, 2 mM BaCl2, 1 μM ionomycin
Protocol: as §3
In addition to nicotinic-cholinergic stimulation, several secretagogues that act at later stages in the secretory pathway than the nicotinic receptor were tested, including membrane depolarization (by KCl), or blockade of repolarization (by Ba^2+). In addition, secretagogues that act on different targets from the nicotinic-cholinergic receptor, such as P2x (ATP) or artificial Ca^2+ pores (Ca^2+ ionophore ionomycin) were used.

[5] = test system: BPH/2J polygenic hypertensive mice; experiment: Telemetric continuous intra-arterial blood pressure and heart rate in hypertensive BPH/2J mice; type: in vivo, mouse; details: 5 μg/g body weight i.p.
Source text: Telemetric measurement of blood pressure (BP) in conscious hypertensive mice (polygenic hypertensive BPH/2J mouse model; F. A. Wright et al., Hypertension, 34 (1999), p. 625-630) was achieved using a Data Sciences International (DSI; Transoma Medical) Physiol Tel telemetry system, implanting a catheter coupled to a TA11PA-C20 (DSI) transmitter, as described (N. R. Mahapatra et al., J. Clin. Invest., 115 (2005), 1942-1952). The animals and implants were left to stabilize for ten days after surgery. BPH/2J polygenic hypertensive mice (n=7/group) were then treated with test compound (5 μg/g body weight, intra-peritoneal; or vehicle). BP and heart rate (HR) were measured continuously over 24 hours, before and after compound administration.

[6] = target: nicotinic cholinergic receptor; details: Mahata et al., Mol. Pharmacol. 66 (2004); read-out: IC50 of human catestatin, previously measured; cited from earlier work
[7] = Table 1, 30 min, read-out: IC50: concentration that achieves 50% inhibition of secretion
[8] = increasing compound doses, read-out: IC50 from secretion assays with increasing compound doses

For `Nc1nc(N)c2nc(CNc3ccc(C(=O)N[C@@H](CCC(=O)O)C(=O)O)cc3)cnc2n1` [TKO-10-1], which IC50 [1, 7] is on record?
Its IC50 is greater than 5000 nM.

With `O=C(Nc1cc(C2=NCCN2)cc(C2=NCCN2)c1)Nc1cc(C2=NCCN2)cc(C2=NCCN2)c1` [TKO-10-2] as the molecule, how does the IC50 [1, 7] read?
Its IC50 is greater than 5000 nM.

Which IC50 [1, 7] does the source give for `C/N=C(\NC)c1ccc(/N=C(\NC)c2ccc(/C(=N/c3ccc(/C(=N/C)NC)cc3)NC)cc2)cc1` [TKO-10-3] here?
The IC50 was 1700 nM.

What does the source list for `C/N=C(/NC)c1ccc(NC(=O)Nc2cccc(NC(=O)Nc3ccc(/C(=N\C)NC)cc3)c2)cc1` [TKO-10-4]?
IC50 [2]: ~70 nM and 70 nM; IC50 [1, 7]: 230 nM; IC50 [1, 8]: 41 nM

With `CNC(=O)c1cc(NC(=O)Nc2cccc(C3=NCCN3)c2)cc(NC(=O)Nc2cccc(C3=NCCN3)c2)c1` [TKO-10-5] as the molecule, how does the “Effect on basal secretion (~5% 3H-NE release)” value [3] read?
Its value is “remained unaltered”.

What about the “Inhibition of catecholamine release caused by agents acting distal to the receptor or on other receptor classes” value [4] of the same molecule?
Its value is “not when secretion was caused by agents acting distal to the receptor, or on other receptor classes”.

And the IC50 [2]?
Its IC50 is ~100 nM and 100 nM.

What about the “Hill slope (cooperativity of inhibition of secretion)” value [1] of the same molecule?
The value was “near unity”.

And the IC50 [1, 7]?
Its IC50 is 1100 nM.

And the IC50 [1, 8]?
Its IC50 is 1000 nM.

And the “Norepinephrine secretion at ascending nicotine doses (noncompetitive inhibition)” value ([1]; 30 min)?
Its value is “reduced norepinephrine secretion significantly”.

What about the “Inhibition of catecholamine release triggered by nicotine” value [1] of the same molecule?
Its value is “significantly inhibited catecholamine release”.

Which IC50 [1, 7] does the source give for `CNC(=N)c1ccc(NC(=N)c2ccc(Cl)c(C(=N)Nc3ccc(C(=N)NC)cc3)c2)cc1` [TKO-10-6] here?
The IC50 was 1800 nM.

What does the source list for `C/N=C(/NC)c1ccc(NC(=O)Nc2ccc(C)c(NC(=O)Nc3ccc(/C(=N\C)NC)cc3)c2)cc1` [TKO-10-7]?
IC50 [2]: ~100 nM and 100 nM; IC50 [1, 7]: 290 nM; IC50 [1, 8]: 24 nM

With `CCN/C(=N/c1cccc(C2=NCCN2)c1)c1ccc(/C(=N\c2cccc(C3=NCCN3)c2)NCC)cc1` [TKO-10-8] as the molecule, how does the IC50 [1, 7] read?
The IC50 was 1600 nM.

Which IC50 [1, 7] does the source give for `CNC(=O)c1ccc(NC(=O)Nc2cccc(C3=NCCN3)c2)cc1NC(=O)Nc1cccc(C2=NCCN2)c1` [TKO-10-9] here?
Its IC50 is 1400 nM.

Which IC50 [1, 7] does the source give for `Nc1nc(N)c(-c2ccc(Cl)cc2)c(CCc2ccc(NC(=O)CBr)cc2)n1` [TKO-10-10] here?
Its IC50 is 1500 nM.

Which IC50 [1, 7] does the source give for `Cc1ccnc(NS(=O)(=O)c2ccc(/N=N/c3cc(/N=N/c4ccccc4)c(N)nc3N)cc2)n1` [TKO-10-11] here?
The IC50 was greater than 5000 nM.

For `Nc1nc(N)c(/N=N/c2ccc(S(=O)(=O)Nc3ncccn3)cc2)cc1/N=N/c1ccccc1` [TKO-10-12], which IC50 [1, 7] is on record?
Its IC50 is 2000 nM.

With `Cc1cc(NC(=O)NCc2ccc(N3C(N)=NC(N)=NC3(C)C)cc2)ccc1S(=O)(=O)F` [TKO-10-13] as the molecule, how does the IC50 [1, 7] read?
The IC50 was 870 nM.

For `CCN(CC)CC(O)CNc1cc(C)nc(NC(=N)Nc2ccc(Cl)c(Cl)c2)n1` (stereo not drawn) [TKO-10-14], which “Effect on basal secretion (~5% 3H-NE release)” value [3] is on record?
Its value is “remained unaltered”.

And the “Inhibition of catecholamine release caused by agents acting distal to the receptor or on other receptor classes” value [4]?
Its value is “not when secretion was caused by agents acting distal to the receptor, or on other receptor classes”.

What about the IC50 [1, 7] of the same molecule?
Its IC50 is 680 nM.

What about the “Norepinephrine secretion at ascending nicotine doses (noncompetitive inhibition)” value ([1]; 30 min) of the same molecule?
The value was “reduced norepinephrine secretion significantly”.

What about the “Inhibition of catecholamine release triggered by nicotine” value [1] of the same molecule?
Its value is “significantly inhibited catecholamine release”.

With `CC1(C)N=C(N)N=C(N)N1c1cccc(CNC(=O)Nc2ccccc2)c1` [TKO-10-15] as the molecule, how does the IC50 [1, 7] read?
The IC50 was greater than 5000 nM.

With `CCN1CCC(CNc2cc(C)nc(NC(=N)Nc3ccc(Cl)c(Cl)c3)n2)C1` (stereo not drawn) [TKO-10-16] as the molecule, how does the IC50 [1, 7] read?
Its IC50 is 450 nM.

With `CCN1CCC(CNc2cc(C)nc(NC(=N)Nc3cc(Cl)cc(Cl)c3)n2)C1` (stereo not drawn) [TKO-10-17] as the molecule, how does the IC50 [1, 7] read?
The IC50 was 1900 nM.

With `C/C(=N\NC(=N)N)c1cccc(NC(=S)Nc2cccc(/C(C)=N/NC(=N)N)c2)c1` [TKO-10-18] as the molecule, how does the “Fall in heart rate (HR)” value [5] read?
Its value is roughly 180 beats/min.

And the “Reflex tachycardia after fall in BP” value [5]?
The value was “not accompanied by reflex tachycardia”.

What about the “Time by which BP declines were apparent” value [5] of the same molecule?
The value was 10 to 30 min.

What about the “Time for which BP declines were maintained” value [5] of the same molecule?
The value was no more than 60 min.

And the “Reduction in DBP” value ([5]; initial DBP 104.9±0.1 mmHg)?
The value was roughly 25 mmHg.

What about the “Reduction in SBP” value ([5]; initial SBP 145.0±0.6 mmHg) of the same molecule?
The value was roughly 33 mmHg.

And the IC50 [2]?
The IC50 was ~90 nM and 90 nM.

And the “Hill slope (cooperativity of inhibition of secretion)” value [1]?
The value was “near unity”.

What about the IC50 [1, 7] of the same molecule?
The IC50 was 180 nM.

What about the IC50 [1, 8] of the same molecule?
The IC50 was 17 nM.

For `Nc1ccc(CCCCc2nc(N)nc(N)c2-c2ccc(Cl)c(Cl)c2)cc1` [TKO-10-19], which IC50 [1, 7] is on record?
The IC50 was 2600 nM.

For `CCN1CCCC(CNc2cc(C)nc(NC(=N)Nc3ccc(Cl)c(Cl)c3)n2)C1` (stereo not drawn) [TKO-10-20], which IC50 [1, 7] is on record?
The IC50 was 1100 nM.

Which IC50 [6] does the source give for “SSMKLSFRARAYGFRGPGPQL [Human catestatin]” here?
Its IC50 is 820 nM.
